The values that follow come from article PMC9872677, “Boronic Acid Transition State Inhibitors as Potent Inactivators of KPC and CTX-M β-Lactamases: Biochemical and Structural Analyses” (Antimicrobial Agents and Chemotherapy, 2023).

Converted amounts (≈) assume the structure as drawn. Read-outs that look alike come from different tables or passages of the source.

The target in data set [1] is T1, CTX-M-96 β-lactamase (Escherichia coli, UniProt Q9EXV5, N92S). Description: IC50 after 5-min preincubation, nitrocefin reporter substrate. As to conditions: 100 μM nitrocefin. The data set is classed as biochemical. How it is done:
(§1) Using nitrocefin as an indicator substrate and 5 min incubation before steady-state velocities were determined, 50% inhibitory concentrations (IC50s) in the nanomolar range for KPC-2 and CTX-M-96 β-lactamases were measured, and both inhibitors bound CTX-M-96 with greater affinity than KPC-2 (Table 1). The IC50 was approximatively 40-fold lower for CTX-M-96 than KPC-2 for both inhibitors. The IC50 of S02030 is 2 nM against CTX-M-96 and 80 nM against KPC-2 ([12]). […] The on rates (k2/K) for S02030 and MB_076 versus CTX-M-96 were 24,000 M^−1 s^−1 and 3,900 M^−1 s^−1, respectively, and those for KPC-2 were 12,000 M^−1 s^−1 and 1,200 M^−1 s^−1 respectively (Table 1). […] The k2/K values for both BATSIs against CTX-M-96 were lower than those of avibactam ([16]). […] Kinetic plots for CTX-M-96–S02030, CTX-M-96–MB_076, and KPC-2–MB_076 are shown in Fig. S1 in the supplemental material.
(§2) The inhibition by BATSIs is assumed to follow a reversible mechanism according to the following scheme: (1) E + I ↔ E:I ↔ E-I^*↔ E-I^** where E represents the enzyme, I the BATSI, E:I the Michaelis complex, E-I* the enzyme-inhibitor complex as the acylation transition state analog, and E-I** the deacylation transition state intermediate, according to previous models ([15]). The half-maximal inhibitory concentration (IC50) was measured after a 5-min preincubation of the enzyme and each BATSI at increasing concentrations, with 100 μM nitrocefin as the reporter substrate, as previously described ([12], [13]).

Data set [2] has as its target T2, KPC-2 β-lactamase (Klebsiella pneumoniae, UniProt Q9F663).
T2 construct: made in house; host or cells: E. coli BL21 Star
Described as above. Type of data set: biochemical. As to conditions: 100 μM nitrocefin. How it is done:
as §1, §2

For data set [3], the target named is T1, CTX-M-96 β-lactamase. Description: On rate (k2/K) from progress curves with nitrocefin. The data set is classed as biochemical. As for the experimental part:
(§3) To determine the on rate (k2/K), progress curves were obtained by incubating KPC-2 or CTX-M-96 with increasing concentrations of BATSIs and 100 μM nitrocefin as the reporter substrate. Progress curves were fitted to equation 2 to obtain kobs values, by nonlinear least-squares fitting of the data, and k2/K was determined from equation 3. (2) A = vf * t + (v0 − vf) × (1 − e^−kobst)/kobserved + A0 (3) kobserved = k−2 + (k2/K) × ([I]/(1 + ([S]/Km nitrocefin))) In equation 2, A is absorbance at 482 nm, vf is final velocity, t is time, v0 is initial velocity, and A0 is initial absorbance at 482 nm. In equation 3, [I] is the concentration of BATSI and [S] is the concentration of nitrocefin. The data were plotted as kobs versus [BATSI], and the k2/K value was obtained by correcting the value for the slope of the line for the concentration and affinity of nitrocefin (Equation 4). (4) k2/Kcorrected = k2/Kobserved × (([S]/Km nitrocefin) + 1)

For data set [4], the target named is T2, KPC-2 β-lactamase. Described as above. Type of data set: biochemical. How it is done:
as §3

In data set [5] the target is T1, CTX-M-96 β-lactamase. Kind of data set: Off rate (koff) after preincubation with saturating BATSI. The data set is classed as biochemical.
In data set [6] the target is T2, KPC-2 β-lactamase. The data set is described as above. Type of data set: biochemical. As for the experimental part:
The koff value was determined by mixing KPC-2 or CTX-M-96 with 100 μM nitrocefin after preincubating 5 min with a saturating amount of each BATSI, and progress curves were fitted to a single exponential decay equation as previously described ([12][–][14]).

Data set [7] can be described thus: Solubility as DMSO stock solution. Type of data set: physicochemical. As to conditions: organic solvent or mixture.
Data set [8] concerns pan-drug-resistant KPC-producing K. pneumoniae clinical isolate. More on the design: method as in our unpublished data. As to conditions: paired with cefepime; separate paper and previous results, ref our unpublished data; cited from earlier work.
For data set [9], the target named is T2, KPC-2 β-lactamase. More on the design: method as in PMID 26729496. As to conditions: published previously; cited from earlier work.
The target of data set [10] is T2, KPC-2 β-lactamase. Also noted: method as in PMID 26729496. As to conditions: off rate, published previously; cited from earlier work.
Data set [11] has as its system Escherichia coli DH10B carrying blaSHV, blaKPC-2, and blaKPC-3 variants. More on the design: method as in PMID 26729496. As to conditions: previous studies; cited from earlier work.
In a further data set the target is CTX-M-96. More on the design: method as in PMID 26228623. The settings on record: previously reported; cited from earlier work.

For `Nc1nnc(SCC(=O)N[C@@H](Cn2cc(C(=O)O)nn2)B(O)O)s1` [MB_076], the IC50 – broadly, the concentration that inhibits the measured activity by half – against CTX-M-96 β-lactamase [1] was 4 ± 0.5 nM; on KPC-2 β-lactamase [2], 135 ± 20 nM. The values for the k2/K on CTX-M-96 β-lactamase [3] and on KPC-2 β-lactamase [4] (on rate) were 3,900 M^−1 s^−1 and 1,200 M^−1 s^−1, respectively. Further, the kinact/KI (usually the second-order rate constant of inactivation) on KPC-2 β-lactamase [4] (on rate) turned out to be 1200 M⁻¹ s⁻¹. For the same molecule, the Koff result at CTX-M-96 β-lactamase [5] is “(0.62 ± 0.05) × 10^−3 s^−1”; at KPC-2 β-lactamase [6], 0.001 s⁻¹. Besides, the solubility (commonly how much of the substance goes into solution per volume) in [7] worked out at 1000 mM (≈ 373 mg/mL). In addition, the “restoration of cefepime activity” value in data set [8] is “restore cefepime activity”.

In the case of `O=C(Cc1cccs1)N[C@@H](Cn1cc(C(=O)O)nn1)B(O)O` [S02030], the IC50 was 2 ± 0.2 nM against CTX-M-96 β-lactamase [1] and 80 ± 2 nM at KPC-2 β-lactamase [9]. Further, the k2/K at CTX-M-96 β-lactamase [3] was 24,000 M^−1 s^−1. In addition, the “k2/K fold higher compared to MB_076” value at KPC-2 β-lactamase [4] worked out at 10 fold. Besides, the Koff result is “(0.75 ± 0.03) × 10^−3 s^−1” at CTX-M-96 β-lactamase [5] and “(0.46 ± 0.02) × 10^−3 s^−1” on KPC-2 β-lactamase [10]. Also, the solubility in data set [7] was 250 mM (≈ 81 mg/mL). In data set [8], the “restoration of cefepime activity” value is listed as “restore cefepime activity”. The “restoration of susceptibility combined with cefepime” value in data set [11] is reported as “restored susceptibility”.

Take `O=C(O)[C@H]1/C(=C/CO)O[C@@H]2CC(=O)N21` [clavulanic acid]: at CTX-M-96, the “inactivation efficiency value (kinact/KI)” value is on record as 45,000 M^−1 s^−1.
